Measurements reported in patent US20060160070A1, “Association-based epitome design” (Microsoft Corporation, priority 2004, published 2006).

Tests used:
HLA B*0702 [1] = target: T1, HLA B*0702 (Homo sapiens, UniProt P01889); test: ITOPIA peptide binding assay; details: 1.11×10^−4M of peptide
T1 construct: purchased
Description: (§1) Peptide binding, off-rate and affinity were measured according to the protocols described in the ITOPIA Epitope Discovery System Customer Guide. To conduct the experiments, ninety-six (96) micro-titer plates coated with MHC molecules representing the HLA alleles listed in Table 9 were used to identify candidate peptides. Determinations were performed in duplicate using an ELISA plate reader. The peptide binding assay used measures the ability of individual peptides to bind to the HLA molecules under standardized optimal binding conditions. The assay was performed for all the test peptides across the selected HLA alleles. The test peptides identified as “binders” were characterized further in terms of affinity and dissociation experiments. The off-rate assay used evaluates the dissociation of previously bound peptide at defined time points (expressed as the t1/2 value). The affinity assay used measures the relative binding affinities for the MHC molecules determined by incubating candidate peptides identified in the initial peptide binding assay at increasing concentrations (expressed as quantity of peptide needed to achieve 50% binding or ED50 value).
(§2) The binding of the test peptides (Table 8) to the HLA molecules (Table 9) was performed at a concentration of 1.11×10^−4M of peptide under optimal, standardized test conditions. A control peptide was run in parallel on the same plate and at the same concentration as the test peptides. […] The level of binding is expressed as a percent of positive control peptide binding for each allele.

HLA A*0201 [2] = target: T2, HLA A*0201 (Homo sapiens, UniProt P04439, D140Y/D185E/D98H/E176V/E277Q/G131W/G231S/I119V/I121R/I166T/I218V/L300P/L318F/N151K/N90K/P208A/P217A/Q86G/Q94H/R138H/R169H/T345S); test: ITOPIA peptide binding assay; details: 1.11×10^−4M of peptide
Description: as §1, §2

HLA A*0301 [3] = target: T3, HLA A*0301 (Homo sapiens, UniProt P04439); test: ITOPIA peptide binding assay; details: 1.11×10^−4M of peptide
T3 construct: purchased
Description: as §1, §2

HLA A*2402 [4] = target: T4, HLA A*2402 (Homo sapiens, UniProt P04439, D101N/D140Y/D185E/E176V/E190D/F33S/G103R/G107R/I119L/I121M/I306V/K335N/L105A/L180Q/L300P/N151K/N90K/Q86E/Q94H/R106L/R138H/R89G/T104I/T345S/V100E/W191G/Y123F); test: ITOPIA peptide binding assay; details: 1.11×10^−4M of peptide
Description: as §1, §2

HLA A*1101 [5] = target: T5, HLA A*1101 (Homo sapiens, UniProt P04439, A114D/D185E/E176A/F33Y/L180Q/S129P/T187R); test: ITOPIA peptide binding assay; details: 1.11×10^−4M of peptide
T5 construct: purchased
Description: as §1, §2

HLA B*1501 [6] = target: T6, HLA B*1501 (Homo sapiens, UniProt P01889, A329T/A93T/A95T/C349S/D201E/D98Y/E187L/E204Q/E69M/E70A/K202T/N87E/Q94N/R155S/R180W/S121R/S35A/S48A/V306I/V36M/Y140S/Y91S); test: ITOPIA peptide binding assay; details: 1.11×10^−4M of peptide
T6 construct: purchased
Description: as §1, §2

HLA A*0101 [7] = target: T7, HLA A*0101 (Homo sapiens, UniProt P04439, A114D/A174V/A182V/D101N/D185E/E176A/E190D/L180R/Q94H/R68K/S129P/T187R/V100A/V91M/W191G); test: ITOPIA peptide binding assay; details: 1.11×10^−4M of peptide
T7 construct: purchased
Description: as §1, §2

HLA B*0801 [8] = target: T8, HLA B*0801 (Homo sapiens, UniProt P01889, A93T/A95T/D138N/E176V/E187T/K202T/Q94N/R180D/S35A/V36M/Y33D/Y91F); test: ITOPIA peptide binding assay; details: 1.11×10^−4M of peptide
T8 construct: purchased
Description: as §1, §2

HLA A*0201 [9] = target: T2, HLA A*0201; test: ITOPIA off-rate assay; format: binding; details: 37° C., one-phase exponential decay
Description: as §1
The peptides initially identified as binders were evaluated for stability based on their ability to remain bound to MHC molecules at 37° C. at time points 0, 0.5, 1, 1.5, 2, 4, 6 and 8 hours. […] The values obtained for each time point (in duplicate) are expressed (Table 11) as a percentage of the positive control. To calculate the t1/2 and goodness-of-fit, as measured by r^2, for each peptide, a one-phase exponential decay curve, with a plateau given equal to 0, was generated using […] PRISM software.

HLA B*0702 [10] = target: T1, HLA B*0702; test: Multi-parametric analysis iScore; format: binding; design: scale not given here; details: index integrating t1/2 and ED50
Description: (§3) Multi-parametric analysis was performed to integrate the half-life (t½) and ED50 parameters in an index (iScore). The iScore (Table 13) reflects the capability of a peptide to reconstitute with MHC molecules in a stable complex, defining its overall level of binding.

HLA A*0201 [11] = target: T2, HLA A*0201; test: Multi-parametric analysis iScore; format: binding; design: scale not given here; details: index integrating t1/2 and ED50
Description: as §3

HLA A*0301 [12] = target: T3, HLA A*0301; test: Multi-parametric analysis iScore; format: binding; design: scale not given here; details: index integrating t1/2 and ED50
Description: as §3

HLA A*2402 [13] = target: T4, HLA A*2402; test: Multi-parametric analysis iScore; format: binding; design: scale not given here; details: index integrating t1/2 and ED50
Description: as §3

HLA A*1101 [14] = target: T5, HLA A*1101; test: Multi-parametric analysis iScore; format: binding; design: scale not given here; details: index integrating t1/2 and ED50
Description: as §3

HLA B*1501 [15] = target: T6, HLA B*1501; test: Multi-parametric analysis iScore; format: binding; design: scale not given here; details: index integrating t1/2 and ED50
Description: as §3

HLA A*0101 [16] = target: T7, HLA A*0101; test: Multi-parametric analysis iScore; format: binding; design: scale not given here; details: index integrating t1/2 and ED50
Description: as §3

HLA B*0801 [17] = target: T8, HLA B*0801; test: Multi-parametric analysis iScore; format: binding; design: scale not given here; details: index integrating t1/2 and ED50
Description: as §3

| Substance | level of binding, percent of positive control peptide binding (HLA B*0702 [1]) | level of binding, percent of positive control peptide binding (HLA A*0201 [2]) | level of binding, percent of positive control peptide binding (HLA A*0301 [3]) | level of binding, percent of positive control peptide binding (HLA A*2402 [4]) | level of binding, percent of positive control peptide binding (HLA A*1101 [5]) | level of binding, percent of positive control peptide binding (HLA B*1501 [6]) | level of binding, percent of positive control peptide binding (HLA A*0101 [7]) | level of binding, percent of positive control peptide binding (HLA B*0801 [8]) | A*0201 t1/2 (HLA A*0201 [9]) [h] | iScore (HLA B*0702 [10]) | iScore (HLA A*0201 [11]) | iScore (HLA A*0301 [12]) | iScore (HLA A*2402 [13]) | iScore (HLA A*1101 [14]) | iScore (HLA B*1501 [15]) | iScore (HLA A*0101 [16]) | iScore (HLA B*0801 [17]) |
| --- | --- | --- | --- | --- | --- | --- | --- | --- | --- | --- | --- | --- | --- | --- | --- | --- | --- |
| VTLTEEAEL [compound 156] | 0% of positive control | 26% of positive control | 0% of positive control | 11% of positive control | 1% of positive control | 7% of positive control | 1% of positive control | 4% of positive control | 1.2 | 0 | 0.110 | 0 | 0 | 0 | 0 | 0 | 0 |
| ALFYKLDVV [compound 72] | 3% of positive control | 80% of positive control | 5% of positive control | 14% of positive control | 1% of positive control | 4% of positive control | 4% of positive control | 3% of positive control | 4.0 | 0 | 0.484 | 0 | 0 | 0 | 0 | 0 | 0 |
| 70 (VPLTEEAEL; HIV) [compound 70] | 4% of positive control | 5% of positive control | 0% of positive control | 6% of positive control | 1% of positive control | 4% of positive control | 1% of positive control | 4% of positive control |  | 0 | 0 | 0 | 0 | 0 | 0 | 0 | 0 |
| 155 (HNEWTLELL; HIV) [compound 155] | 1% of positive control | 5% of positive control | 0% of positive control | 13% of positive control | 1% of positive control | 0% of positive control | 0% of positive control | 3% of positive control |  | 0 | 0 | 0 | 0 | 0 | 0 | 0 | 0 |
